Legend:
[1] = test system: ubiquinone-deficient enzyme preparation from beef heart mitochondria (succinate oxidase); assay: Electron transport activity (succinate oxidase activity of ubiquinone-deficient enzyme preparation); type: biochemical; details: level of addition 5 n mole; control 7.1 ± 2.8
Procedure: Thus, the compound of this invention was added to a ubiquinone-deficient enzyme preparation made from beef heart mitochondria and the electron transport activity was investigated by assaying the succinate oxidase activity.
*The ubiquinonedeficient enzyme preparation was prepared from beef heart
mitochondria in accordance with the method of Lester and Fleischer
(Biochem. Biophys. Acta, 47, 358, 1961). The electron transport activity
was investigated by assaying the succinate oxidase activity.
**The composition of the reaction system (2 ml) was as follows. 0.2 M
sucrose, 10 mM TrisHCl (pH 7.4), 20 mM KCl, 3 mM MgCl2, […]
2Na, enzyme protein 1.99 mg, 50 μM potassium succinate, cytochrome C
0.2 mg. 1% Nikkol OP10 (produced by Nikko Chemicals Co. Ltd.) 5 μl
(control group) or 5 μl of a 1 mM solution of the test compound in 1%
Nikkol OP10. The oxygen consumption of this solution was measured with an
oxygen electrode device (Gilson Medical Electronics' Inc.).

[2] = test system: rats with spontaneous hypertension (Ta:SHR); assay: Blood pressure of Ta:SHR, oral gavage; type: in vivo, rat; details: 10 mg/kg/day oral gavage, mean ± standard error
Procedure: (§1) Thus, 21-week rats with spontaneous hypertension (Ta:SHR) were organized into groups of 8 to 10 individuals each, and one of the present compounds, i.e. 6-(6-hydroxy-3-methyl-3-hexenyl)-2,3-dimethoxy-5-methyl-1,4-benzoquinone (formula (I) wherein R:H3 CO, n:O, R2 :H, R1 :(CH2)3 OH, α β:double bond), and, as controls, ubiquinone homologs (ubiquinone-7 and ubiquinone-10) were each administered by oral gavage in doses of 10 mg/kg/day for 2 weeks (except on Sunday) or administered as incorporated in feed at the rate of 6 to 16 mg/kg/day for 4 weeks. Blood pressures were measured every week, and as for the oral gavage administration group, the blood was withdrawn from the abdominal aorta at the end of the administration period while each animal was kept under anesthesia with pentobarbital sodium (30 mg/kg, intraperitoneal). Then, the kidneys, liver, heart and adrenals were enucleated and weighed. At two weeks in the case of the oral gavage administration group (Table 3) or during week-1 through week-4 in the case of the feed incorporation group (Table 4), antihypertensive effects were observed. […] Since it is generally acknowledged that, in the case of ubiquinone homologs, such hypotensive effects are attributable to a depression of the ubiquinone (Q) deficiency in mitochondria, the degree of Q deficiency of heart mitochondria was investigated in 6 cases showing blood pressures over 230 mmHg in the control group and 6 cases showing blood pressures under 212 mmHg in the group dosed with the present compound.

[3] = test system: rats with spontaneous hypertension (Ta:SHR); assay: Blood pressure of Ta:SHR, incorporated in feed; type: in vivo, rat; details: 6-16 mg/kg/day in feed, mean ± standard error
Procedure: as §1

Rat liver lysosome = assay: Lysosomal membrane stabilizing activity (release of β-glucuronidase and acid phosphatase); type: biochemical; details: 37° C., 90 minutes
Procedure: (1) Rat liver lysosome was incubated at 37° C. for 90 minutes and the activities of β-glucuronidase and acid phosphatase released from the lysosome due to instabilization of the membrane during that time were assayed and compared with the results obtained in the absence of the test compound. The test compound was added as dissolved in dimethylformamide.

[4] = test system: beef heart muscle phosphodiesterase; assay: Phosphodiesterase inhibitory activity; type: biochemical; details: 1 mM
Description: Since lysosomal membrane-stabilizing activity is developed through adenosine-[…]-cyclic monophosphate (c-AMP) of tissue cells, the action of compound (I) on c-AMP phosphodiesterase, the c-AMP decomposing enzyme, was investigated. […] Therefore, it was confirmed, if only from this fact, that the compound according to this invention has a membrane-stabilizing activity.
(2) The rate of decomposition of adenosine-[…]-cyclic phosphate by beef heart muscle phosphodiesterase was compared with the rate found in the absence of the test compound.

[5] = test system: isolated guinea pig trachea; assay: Tracheal muscle relaxant activity; details: Cavia porcellus, relaxant effect of noradrenaline taken as 100, read-out: Tracheal muscle relaxant action; for Emax at 30 µg/mL: 3 × 10^-5 g/ml; for Emax at 100 µg/mL: 10^-4 g/ml
Procedure: Thus, the isolated guinea pig trachea was cut into a strip in accordance with the method of Kiyomoto et al. [Yamaura Y. ed. "Zensoku (Asthma)", Kodansha, Tokyo, p. 152, 1974 (Japanese language)], set up in a Magnus device and kept at constant contraction with potassium chloride solution five times the concentration of Tyrode solution. Under the above conditions, a solution of the drug in DMF was added and the muscle relaxant effect was recorded on a kymograph.
^(1) With the relaxant effect of noradrenaline being taken as 100.

% Inhibition on release of acid phosphatase (Rat liver lysosome; 2 × 10^-4 M) [%] | % Inhibition on release of β-Glucuronidase (Rat liver lysosome; 2 × 10^-4 M) [%] | Action on phosphodiesterase % Inhibition [4] [%] | Compound | other results
– | – | – | COC1=C(OC)C(=O)C(C/C=C(\C)CC/C=C(\C)CC/C=C(\C)CO)=C(C)C1=O | Succinate oxidase activity [oxygen consumption] [1]: 42.4 ± 6.3 (n atoms oxygen) min. per mg p
– | – | – | COC1=C(OC)C(=O)C(C/C=C(\C)CC/C=C(\C)CO)=C(C)C1=O | Succinate oxidase activity [oxygen consumption] [1]: 35.5 ± 3.5 (n atoms oxygen) min. per mg p
– | – | – | COC1=C(OC)C(=O)C(CC=C(C)CCCC(C)(C)O)=C(C)C1=O | Succinate oxidase activity [oxygen consumption] [1]: 21.4 (n atoms oxygen) min. per mg p
– | – | – | COC1=C(OC)C(=O)C(C/C=C(\C)CC/C=C(\C)CC/C=C(\C)CC/C=C(\C)CC/C=C(\C)CC/C=C(\C)CCC=C(C)C)=C(C)C1=O [Ubiquinone-7, ubiquinone-7, reference compound] | Blood pressure ([2]; week 0): 199 ± 9 mmHg; Blood pressure ([2]; week 1): 204 ± 9 mmHg; Blood pressure ([2]; week 2): 206 ± 11 mmHg
– | – | – | COC1=C(OC)C(=O)C(C/C=C(\C)CC/C=C(\C)CC/C=C(\C)CC/C=C(\C)CC/C=C(\C)CC/C=C(\C)CC/C=C(\C)CC/C=C(\C)CC/C=C(\C)CCC=C(C)C)=C(C)C1=O [Ubiquinone-10, ubiquinone-10] | Blood pressure ([3]; week 0): 206 ± 16 mmHg; Blood pressure ([3]; week 1): 191 ± 14 mmHg; Blood pressure ([3]; week 2): 187 ± 10 mmHg; Blood pressure ([3]; week 3): 199 ± 17 mmHg; Blood pressure ([3]; week 4): 205 ± 13 mmHg
49 | 18 | 60 | COC1=C(OC)C(=O)C(CC(O)C(C)C(=O)O)=C(C)C1=O (centres unmarked) [drawing 11 R#1] | –
48 | 29 | 20 | CC1=C(C)C(=O)C(CC(O)C(C)C(=O)O)=C(C)C1=O (centres unmarked) [drawing 11 R#2] | –
35 | 15 | 40 | CC1=C(CC(O)C(C)C(=O)O)C(=O)c2ccccc2C1=O (centres unmarked) [drawing 11 R#3] | –
44 | 36 | 47 | COC1=C(OC)C(=O)C(C/C=C(\C)C(=O)O)=C(C)C1=O [drawing 13 R#1] | –
40 | 36 | 42 | CC1=C(C)C(=O)C(C/C=C(\C)C(=O)O)=C(C)C1=O [drawing 13 R#2] | –
– | – | 86 | CC1=C(C/C=C(\C)C(=O)O)C(=O)c2ccccc2C1=O [drawing 13 R#3] | –
32 | 37 | 41 | CC1=C(C)C(=O)C(C/C=C(\C)CO)=C(C)C1=O [drawing 15 R#1] | –
39 | 37 | 55 | CC1=C(C/C=C(\C)CO)C(=O)c2ccccc2C1=O [drawing 15 R#2] | –
37 | 28 | 84 | COC1=C(OC)C(=O)C(C/C=C(\C)CCCO)=C(C)C1=O [drawing 17 R#1] | –
– | – | 53 | CC1=C(C)C(=O)C(C/C=C(\C)CCCO)=C(C)C1=O [drawing 17 R#2] | % Inhibition on release of acid phosphatase (Rat liver lysosome; 2 × 10^-5 M): 34%; % Inhibition on release of β-Glucuronidase (Rat liver lysosome; 2 × 10^-5 M): 23%
– | – | – | CC1=C(C/C=C(\C)CCCO)C(=O)c2ccccc2C1=O [drawing 17 R#3] | % Inhibition on release of acid phosphatase (Rat liver lysosome; 2 × 10^-5 M): 36%; % Inhibition on release of β-Glucuronidase (Rat liver lysosome; 2 × 10^-5 M): 25%
43 | 38 | 38 | COC1=C(OC)C(=O)C(CCC(C)CO)=C(C)C1=O (centres unmarked) [drawing 19 R: H3 CO] | –
21 | 29 | 44 | CC1=C(C)C(=O)C(CCC(C)CO)=C(C)C1=O (centres unmarked) [drawing 19 R: H3 C] | –
16 | 20 | 18 | CC(=CCC1=C(C)C(=O)C(C)=C(C)C1=O)CCC=C(C)CCC(C)(C)O [drawing 20 R#1] | –
– | – | 29 | CC(=CCC1=C(C)C(=O)c2ccccc2C1=O)CCC=C(C)CCC(C)(C)O [drawing 20 R#2] | % Inhibition on release of acid phosphatase (Rat liver lysosome; 2 × 10^-5 M): 9%; % Inhibition on release of β-Glucuronidase (Rat liver lysosome; 2 × 10^-5 M): 18%
– | – | – | COC1=C(OC)C(=O)C(C/C=C(\C)CCCO)=C(C)C1=O [drawing 24] | Succinate oxidase activity [oxygen consumption] [1]: 18.2 (n atoms oxygen) min. per mg p
– | – | – | COC1=C(OC)C(=O)C(CCC(C)CO)=C(C)C1=O (centres unmarked) [drawing 25] | Succinate oxidase activity [oxygen consumption] [1]: 12.5 (n atoms oxygen) min. per mg p
– | – | – | COC1=C(OC)C(=O)C(C/C=C(\C)CCCO)=C(C)C1=O [drawing 28 R: H3 CO] | Emax at 30 µg/mL [5]: 85.5%; Emax at 100 µg/mL [5]: 100%
– | – | – | CC1=C(C)C(=O)C(C/C=C(\C)CCCO)=C(C)C1=O [drawing 28 R: H3 C] | Emax at 30 µg/mL [5]: 67%; Emax at 100 µg/mL [5]: 100%

Compound | % Inhibition on release of acid phosphatase (Rat liver lysosome; 2 × 10^-4 M) [%] | % Inhibition on release of β-Glucuronidase (Rat liver lysosome; 2 × 10^-4 M) [%] | Action on phosphodiesterase % Inhibition [4] [%] | other results
Cn1c(=O)c2[nH]cnc2n(C)c1=O [theophylline, reference compound] | – | – | 32 | Emax at 30 µg/mL [5]: 60.4%; Emax at 100 µg/mL [5]: 93%
